In patent US20080004253A1, “Thiazolopyrimidine modulators of TRPV1” (priority 2006, published 2008):
pIC50: −log10 of the molar value.

Legend:
rat TRPV1 = molecular target: T1, rat TRPV1 (Rattus norvegicus, UniProt O35433); test: Functional assay: block of capsaicin-induced Ca2+ influx, rat assay (rTRPV1/HEK293, FLIPR); format: cell-based; conditions: rTRPV1/HEK293 cells, capsaicin challenge, Fluo-3 fluorescence; mean; > value = solubility limit in assay medium
T1 construct: expressed in transfected cells; host or cells: HEK293 (rTRPV1/HEK293), geneticin selection
T1 sequence (O35433 whole entry): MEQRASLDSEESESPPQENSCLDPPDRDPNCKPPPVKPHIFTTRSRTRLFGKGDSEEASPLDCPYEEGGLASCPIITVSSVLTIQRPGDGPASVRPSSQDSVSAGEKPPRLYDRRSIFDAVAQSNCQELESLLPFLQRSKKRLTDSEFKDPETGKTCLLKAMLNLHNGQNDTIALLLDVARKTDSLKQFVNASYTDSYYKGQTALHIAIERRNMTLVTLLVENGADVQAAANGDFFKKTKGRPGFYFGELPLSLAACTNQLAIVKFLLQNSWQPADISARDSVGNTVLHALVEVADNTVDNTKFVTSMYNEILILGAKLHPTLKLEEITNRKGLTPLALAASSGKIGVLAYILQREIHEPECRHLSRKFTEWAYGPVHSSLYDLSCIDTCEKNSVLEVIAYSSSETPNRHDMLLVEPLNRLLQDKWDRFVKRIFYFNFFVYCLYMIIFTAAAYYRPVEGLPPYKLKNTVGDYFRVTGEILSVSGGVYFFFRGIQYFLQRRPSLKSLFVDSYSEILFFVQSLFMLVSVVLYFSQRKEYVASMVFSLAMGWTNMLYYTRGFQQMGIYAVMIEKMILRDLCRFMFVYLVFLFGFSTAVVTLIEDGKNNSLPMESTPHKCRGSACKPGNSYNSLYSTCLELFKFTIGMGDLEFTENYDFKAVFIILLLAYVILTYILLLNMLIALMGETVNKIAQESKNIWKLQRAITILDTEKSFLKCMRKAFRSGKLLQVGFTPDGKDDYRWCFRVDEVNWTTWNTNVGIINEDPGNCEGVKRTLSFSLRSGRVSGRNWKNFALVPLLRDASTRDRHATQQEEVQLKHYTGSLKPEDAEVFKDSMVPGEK
Method in brief: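 Compounds, as free base or TFA salt, tested from 10 μM in three-fold steps on rTRPV1-transfected HEK293 cells, with 30 min preincubation in low-calcium (20 μM) buffer. Capsaicin-evoked Ca2+ influx measured by FLIPR fluo3 signal before and 100 s after addition. Averaged IC50 from non-linear fits.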

human TRPV1 = molecular target: T2, human TRPV1 (Homo sapiens, UniProt Q8NER1); test: Functional assay: block of capsaicin-induced Ca2+ influx, human assay (hTRPV1/HEK293, FLIPR); format: cell-based; conditions: hTRPV1/HEK293 cells, 150 nM capsaicin challenge, Fluo-3 fluorescence; mean; > value = solubility limit in assay medium
T2 construct: expressed in transfected cells; host or cells: HEK293 (hTRPV1/HEK293), zeocin selection
T2 sequence (Q8NER1 whole entry): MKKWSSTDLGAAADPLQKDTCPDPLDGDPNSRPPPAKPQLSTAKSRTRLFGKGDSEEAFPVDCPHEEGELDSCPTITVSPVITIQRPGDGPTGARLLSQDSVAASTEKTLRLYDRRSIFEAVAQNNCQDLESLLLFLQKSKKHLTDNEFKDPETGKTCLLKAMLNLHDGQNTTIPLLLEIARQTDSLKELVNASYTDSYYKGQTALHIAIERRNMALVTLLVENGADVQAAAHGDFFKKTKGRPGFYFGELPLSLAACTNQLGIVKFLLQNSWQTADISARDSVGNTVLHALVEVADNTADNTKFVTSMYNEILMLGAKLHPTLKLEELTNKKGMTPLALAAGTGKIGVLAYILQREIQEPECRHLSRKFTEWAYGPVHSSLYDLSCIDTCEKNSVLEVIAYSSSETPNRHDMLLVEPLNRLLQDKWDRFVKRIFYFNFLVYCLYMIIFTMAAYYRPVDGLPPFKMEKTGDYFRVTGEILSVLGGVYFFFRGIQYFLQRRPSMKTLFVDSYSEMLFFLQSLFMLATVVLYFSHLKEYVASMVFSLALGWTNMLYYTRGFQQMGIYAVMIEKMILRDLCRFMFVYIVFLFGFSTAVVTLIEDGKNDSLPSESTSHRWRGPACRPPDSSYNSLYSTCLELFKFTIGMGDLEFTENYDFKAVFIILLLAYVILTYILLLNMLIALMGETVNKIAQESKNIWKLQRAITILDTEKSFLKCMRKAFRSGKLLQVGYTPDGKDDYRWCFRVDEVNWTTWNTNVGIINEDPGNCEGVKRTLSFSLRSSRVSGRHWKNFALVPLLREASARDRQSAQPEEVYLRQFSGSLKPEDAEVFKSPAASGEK
Method in brief: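 HEK293 cells stably expressing human TRPV1, fluo3-loaded, preincubated 30 min with compound (serial 3-fold dilutions from 10 μM, duplicate) in 20 μM Ca2+ buffer. Capsaicin response taken as fluo3 fluorescence change before vs 100 s after agonist; IC50 by non-linear regression, mean values; free base or TFA salt.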

Row | pIC50 (rat TRPV1) | pIC50 (human TRPV1) | Compound
1 | 7.60 | 6.69 | CC1CCCCN1c1nc(Nc2ccc(C(F)(F)F)c(Cl)c2)c2nc(Nc3c(Cl)cccc3Cl)sc2n1 (racemic) [Example 136, (racemic)-N^7-(3-Chloro-4-trifluoromethyl-phenyl)-N^2-(2,6-dichloro-phenyl)-5-(2-methyl-piperidin-1-yl)-thiazolo[5,4-d]pyrimidine-2,7-diamine]
2 | 5.44 | 4.83 | Cc1cccc(C)c1Nc1nc2c(Nc3ccc(S(N)(=O)=O)cc3)ncnc2s1 [Example 44, 4-[2-(2,6-Dimethyl-phenylamino)-thiazolo[5,4-d]pyrimidin-7-ylamino]-benzenesulfonamide]
3 | 6.65 | 6.67 | Clc1cccc(Cl)c1Nc1nc2c(Nc3ccccc3)ncnc2s1 [Example 204, N^2-(2,6-Dichloro-phenyl)-N^7-phenyl-thiazolo[5,4-d]pyrimidine-2,7-diamine]
4 | 6.90 | 6.13 | Cc1ccc(Nc2ncnc3sc(Nc4c(C)cccc4C)nc23)cc1F [Example 148, N^2-(2,6-Dimethyl-phenyl)-N^7-(3-fluoro-4-methyl-phenyl)-thiazolo[5,4-d]pyrimidine-2,7-diamine]
5 | < 5.18 | < 5.18 | Cc1nc(Nc2cccnc2)c2nc(Nc3c(Cl)cccc3Cl)sc2n1 [Example 166, N^2-(2,6-Dichloro-phenyl)-5-methyl-N^7-pyridin-3-yl-thiazolo[5,4-d]pyrimidine-2,7-diamine]
6 | 7.23 | 7.01 | Cc1cccc(C)c1Nc1nc2c(Nc3ccc(Br)cc3)ncnc2s1 [Example 123, N^7-(4-Bromo-phenyl)-N^2-(2,6-dimethyl-phenyl)-thiazolo[5,4-d]pyrimidine-2,7-diamine]
7 | 8.52 | 8.30 | CC(=O)c1ccc(Nc2nc(C)nc3sc(Nc4c(Cl)cccc4Cl)nc23)cc1 [Example 86, 1-{4-[2-(2,6-Dichloro-phenylamino)-5-methyl-thiazolo[5,4-d]pyrimidin-7-ylamino]-phenyl}-ethanone]
8 | 8.52 | 8.10 | CSc1ccc(Nc2nc(C)nc3sc(Nc4c(Cl)cccc4Cl)nc23)cc1 [Example 94, N^2-(2,6-Dichloro-phenyl)-5-methyl-N^7-(4-methylsulfanyl-phenyl)-thiazolo[5,4-d]pyrimidine-2,7-diamine]
9 | 6.20 | 6.13 | FC(F)(F)c1ccc(Nc2ncnc3sc(Nc4c(Cl)cncc4Cl)nc23)cc1 [Example 72, N^2-(3,5-Dichloro-pyridin-4-yl)-N^7-(4-trifluoromethyl-phenyl)-thiazolo[5,4-d]pyrimidine-2,7-diamine]
10 | 6.63 | 5.30 | Cc1cccc(C)c1Nc1nc2c(Nc3cccc(C(F)(F)F)c3)ncnc2s1 [Example 42, N^2-(2,6-Dimethyl-phenyl)-N^7-(3-trifluoromethyl-phenyl)-thiazolo[5,4-d]pyrimidine-2,7-diamine]
11 | 8.40 | 7.36 | Cc1cccc(C)c1Nc1nc2c(Nc3ccc(S(C)(=O)=O)cc3)ncnc2s1 [Example 115, N^2-(2,6-Dimethyl-phenyl)-N^7-(4-methanesulfonyl-phenyl)-thiazolo[5,4-d]pyrimidine-2,7-diamine]
12 | 8.10 | 7.82 | Fc1cc(Nc2ncnc3sc(Nc4c(Cl)cccc4Cl)nc23)ccc1C(F)(F)F [Example 215, N^2-(2,6-Dichloro-phenyl)-N^7-(3-fluoro-4-trifluoromethyl-phenyl)-thiazolo[5,4-d]pyrimidine-2,7-diamine]
13 | 8.22 | 7.59 | Cc1cccc(C)c1Nc1nc2c(Nc3ccc(C(F)(F)F)cc3)ncnc2s1 [Example 10, N^2-(2,6-Dimethyl-phenyl)-N^7-(4-trifluoromethyl-phenyl)thiazolo[5,4,d]pyrimidine-2,7-diamine]
14 | 9.00 | 8.30 | Cc1nc(Nc2ccc(C(F)(F)F)nc2)c2nc(Nc3c(Cl)cccc3Cl)sc2n1 [Example 6, N^2-(2,6-Dichloro-phenyl)-5-methyl-N^7-(6-trifluoromethyl-pyridin-3-yl)-thiazolo[5,4-d]pyrimidine-2,7-diamine]
15 | 6.96 | 6.54 | CC(C)(O)CNc1nc(Nc2ccc(C(F)(F)F)cc2)c2nc(Nc3c(Cl)cccc3Cl)sc2n1 [Example 251, 1-[2-(2,6-Dichloro-phenylamino)-7-(4-trifluoromethyl-phenylamino)-thiazolo[5,4-d]pyrimidin-5-ylamino]-2-methyl-propan-2-ol]
16 | 7.40 | 7.01 | CSc1ccc(Nc2ncnc3sc(Nc4c(Cl)cccc4Cl)nc23)cc1Cl [Example 124, N^7-(3-Chloro-4-methylsulfanyl-phenyl)-N^2-(2,6-dichloro-phenyl)-thiazolo[5,4-d]pyrimidine-2,7-diamine]

The next lines start with the molecule.

Row | Compound | pIC50 (rat TRPV1) | pIC50 (human TRPV1)
17 | O=S(=O)(c1ccc(Nc2ncnc3sc(Nc4ccccc4Cl)nc23)cc1)C(F)(F)F [Example 203, N^2-(2-Chloro-phenyl)-N^7-(4-trifluoromethanesulfonyl-phenyl)-thiazolo[5,4-d]pyrimidine-2,7-diamine] | 7.12 | 7.32
18 | Cc1noc(C)c1Nc1nc2c(Nc3ccc(C(C)(C)C#N)cc3)ncnc2s1 [Example 223, 2-[4-({2-[(3,5-Dimethylisoxazol-4-yl)amino][1,3]thiazolo[5,4-d]pyrimidin-7-yl}amino)phenyl]-2-methylpropanenitrile] | 7.02 | 6.77
19 | Cc1nc(Nc2ccc(C(C)C)cc2)c2nc(Nc3c(C)cccc3C)sc2n1 [Example 125, N^2-(2,6-Dimethyl-phenyl)-N^7-(4-isopropyl-phenyl)-5-methyl-thiazolo[5,4-d]pyrimidine-2,7-diamine] | 7.72 | 6.91
20 | CC1CCCCN1c1nc(Nc2ccc(S(C)(=O)=O)cc2)c2nc(Nc3c(Cl)cccc3Cl)sc2n1 (racemic) [Example 179, (racemic)-N^2-(2,6-Dichloro-phenyl)-N^7-(4-methanesulfonyl-phenyl)-5-(2-methyl-piperidin-1-yl)-thiazolo[5,4-d]pyrimidine-2,7-diamine] | 7.92 | 6.80
21 | Cc1ccccc1Nc1nc2c(Nc3ccc(S(C)(=O)=O)cc3)ncnc2s1 [Example 116, N^7-(4-Methanesulfonyl-phenyl)-N^2-o-tolyl-thiazolo[5,4-d]pyrimidine-2,7-diamine] | 7.96 | 7.35
22 | COC(=O)C(C)(C)c1ccc(Nc2ncnc3sc(Nc4c(C)noc4C)nc23)cc1 [Example 222, Methyl 2-[4-({2-[(3,5-dimethylisoxazol-4-yl)amino][1,3]thiazolo[5,4-d]pyrimidin-7-yl}amino)phenyl]-2-methylpropanoate] | 7.14 | 7.00
23 | CCCCOc1nc(Nc2ccc(C(F)(F)F)cc2)c2nc(Nc3c(Cl)cccc3Cl)sc2n1 [Example 189, 5-Butoxy-N^2-(2,6-dichloro-phenyl)-N^7-(4-trifluoromethyl-phenyl)-thiazolo[5,4-d]pyrimidine-2,7-diamine] | 8.10 | 7.72
24 | CN(C)S(=O)(=O)c1ccc(Nc2ncnc3sc(Nc4ccccc4Cl)nc23)cc1 [Example 113, 4-[2-(2-Chloro-phenylamino)-thiazolo[5,4-d]pyrimidin-7-ylamino]-N,N-dimethyl-benzenesulfonamide] | 7.77 | 7.42
25 | Cc1nc(Nc2ccc(S(=O)(=O)C(C)C)cc2)c2nc(Nc3c(C)cccc3C)sc2n1 [Example 102, N^2-(2,6-Dimethyl-phenyl)-5-methyl-N^7-[4-(Propane-2-sulfonyl)-phenyl]-thiazolo[5,4-d]pyrimidine-2,7-diamine] | 7.72 | 7.74
26 | COC(=O)c1scc(C)c1Nc1nc2c(Nc3ccc(C(F)(F)F)c(Cl)c3)ncnc2s1 [Example 207, 3-[7-(3-Chloro-4-trifluoromethyl-phenylamino)-thiazolo[5,4-d]pyrimidin-2-ylamino]-4-methyl-thiophene-2-carboxylic acid methyl ester] | 6.46 | 6.12
27 | Cc1nc(Nc2ccc(C(F)(F)F)cc2)c2nc(Nc3c(C)noc3C)sc2n1 [Example 208, N^2-(3,5-Dimethyl-isoxazol-4-yl)-5-methyl-N^7-(4-trifluoromethyl-phenyl)thiazolo[5,4-d]pyrimidine-2,7-diamine] | 6.40 | 6.40
28 | Cc1nc(Nc2ccc(C(C)(C)C)cc2)c2nc(Nc3c(C)noc3C)sc2n1 [Example 209, N^7-(4-tert-Butyl-phenyl)-N^2-(3,5-dimethyl-isoxazol-4-yl)-5-methyl-thiazolo[5,4-d]pyrimidine-2,7-diamine] | 6.79 | 6.57
29 | CC(C)N1CCN(c2nc(Nc3ccc(C(F)(F)F)cc3)c3nc(Nc4c(Cl)cccc4Cl)sc3n2)CC1 [Example 69, N^2-(2,6-Dichloro-phenyl)-5-(4-isopropyl-piperazin-1-yl)-N^7-(4-trifluoromethyl-phenyl)-thiazolo[5,4-d]pyrimidine-2,7-diamine] | 6.81 | 6.73
30 | CS(=O)(=O)c1ccc(Nc2nc(N3CCCCC3)nc3sc(Nc4c(Cl)cccc4Cl)nc23)cc1 [Example 129, N^2-(2,6-Dichloro-phenyl)-N^7-(4-methanesulfonyl-phenyl)-5-piperidin-1-yl-thiazolo[5,4-d]pyrimidine-2,7-diamine] | 7.64 | 6.83
